Reference: publication PMC9019904, “AD Informer Set: Chemical tools to facilitate Alzheimer's disease drug discovery” (Alzheimer's & Dementia : Translational Research & Clinical …, 2022)

Experiments:
[1] = test system: HMC3 (human microglia) cell line; test: pHrodo-myelin phagocytosis/cell viability high content imaging assay: phagocytosis signal; assay type: cell-based
Protocol: (§1) It is important to note that stressed cells, such as those that are dying, are prone to show an increase in phagocytosis. […] MerTK promotes phagocytosis and thus MerTK inhibition is proposed to lead to inhibition of phagocytosis.[47]
(§2) phagocytosis and cell viability simultaneously. High content imaging is performed with the
(§3) (approximately 22 hours after pHrodo-myelin addition). Three measurements are extracted
(§4) intensity increase (early apoptosis) and decrease (later apoptosis), respectively. These
and 3). […]

[2] = test system: BV2 (mouse microglia) cell line; test: as above; assay type: cell-based
Protocol: as §1, §2, §3, §4
and 3). […]

[3] = test system: HMC3 (human microglia) cell line; test: pHrodo-myelin phagocytosis/cell viability high content imaging assay: viability (cell count, nuclear area, nuclear intensity); conditions: for 1. Cell count (% control) / 2. Nuclear Area (% Control) / 3. Nuclear DNA Intensity (% control): 48 hours treatment
Protocol: (§5) All AD Informer Set compounds were tested in two immortalized microglial cell lines, murine (BV2), and human (HMC3), in a high‐content imaging assay in duplicate by the Chu lab. Experimental details and all data can be found as supporting information files.
(§6) The role of microglia in AD has been well documented and was thus chosen as a cell type in which to profile the AD Informer Set.[43], [44], [45] As an example, neuroinflammation, as detected by the presence of activated complement proteins, interleukins, cytokines, and chemokines in microglia and astrocytes, is increased early in AD and is considered pathogenic due to its chronic nature.[33], [34] Cytotoxic effects can be assessed by considering multiple parameters.
(§7) Microglial viability and phagocytosis studies: The pHrodo-myelin phagocytosis/cell viability assay, modified based on a published method, was run with immortalized BV2 (mouse microglia) and HMC3 (human microglia) cell lines in the Chu lab at IUSM. The 384-well plate high content analysis assay with BV2 and HMC3 microglial cell lines is used to quantify both phagocytosis and cell viability simultaneously. High content imaging is performed with the ArrayScan automatic imaging system and imaging analysis done with the software on the system. After allowing cells to adhere overnight, they are treated with compounds for total 48 hours including final 20 hours seeded with pHrodo-myelin (labeled phagocytosis ligand, purified […]
(§8) (approximately 22 hours after pHrodo-myelin addition). Three measurements are extracted from the assay: 1) phagocytosis signal by mean total phagocytosis spot intensity per cell, 2) total cell counts per well as the main measurement of cell viability, and 3) mean average nuclear intensity per cell as profiling of cell health since apoptotic cells showing nuclear intensity increase (early apoptosis) and decrease (later apoptosis), respectively. These measurements allow for evaluation of compound-induced phagocytosis (1) and cytotoxicity (2 and 3). Assays were carried out at a single concentration (10 μM). Idelalisib (10 μM) and cytochalasin-D (4 μM) were used as positive controls in the assay. All data, which was an average of 2 data points, was normalized to untreated wells and reported as % control, which is included in the Supporting Information both as a raw data file and summarized in the compound/gene-annotation file.

[4] = test system: BV2 (mouse microglia) cell line; test: as above; conditions: 48 hours treatment
Protocol: as §5, §6, §7, §8

[5] = HMC3 cells, 10 uM compound, 48 hours treatment, pHrodo-myelin final 20 hours
[6] = BV2 cells, 10 uM compound, 48 hours treatment, pHrodo-myelin final 20 hours
[7] = HMC3, compound 10 uM, pHrodo-myelin
[8] = BV2, compound 10 uM, pHrodo-myelin

| Structure (SMILES) | 4. Phagocytosis (% control) [1, 5] [% control] | 4. Phagocytosis (% control) [2, 6] [% control] | 1. Cell count (% control) ([3]; HMC3 cells, 10 uM compound) | 2. Nuclear Area (% Control) ([3]; HMC3 cells, 10 uM compound) | 3. Nuclear DNA Intensity (% control) ([3]; HMC3 cells, 10 uM compound) | 1. Cell count (% control) ([4]; BV2 cells, 10 uM compound) | 2. Nuclear Area (% Control) ([4]; BV2 cells, 10 uM compound) | 3. Nuclear DNA Intensity (% control) ([4]; BV2 cells, 10 uM compound) | other results |
| --- | --- | --- | --- | --- | --- | --- | --- | --- | --- |
| Br.CCCc1cc(-c2nc(-c3ccc(C)cc3)cs2)ccn1 [UNC10302889A] | 101.1 | 198.0 | 81.4 | 79.1 | 141.7 | 52.9 | 97.6 | 117.7 | – |
| CCC(=C(c1ccc(O)cc1)c1ccc(OCCN(C)C)cc1)c1ccccc1 [UNC10302895A] | 89.5 | 182.9 | 134.2 | 100.6 | 93.3 | 114.3 | 103.3 | 103.4 | – |
| O=C(NC12C[C@H]3C[C@@H](C1)C[C@@H](C2)C3)N[C@H]1CC[C@H](Oc2ccc(C(=O)O)cc2)CC1 [UNC10303108A] | 109.9 | 153.6 | – | – | – | – | – | – | – |
| CC(=O)c1nc([C@@H](O)[C@H](O)[C@H](O)CO)c[nH]1 [UNC10303188A] | – | – | – | – | – | – | – | – | 4. Phagocytosis (% control) [1, 7]: 91.3 % control; 4. Phagocytosis (% control) [2, 8]: 181.8 % control; 1. Cell count (% control) ([3]; HMC3, compound 10 uM): 133.0 % control; 2. Nuclear Area (% Control) ([3]; HMC3, compound 10 uM): 98.0 % Control; 3. Nuclear DNA Intensity (% control) ([3]; HMC3, compound 10 uM): 87.6 % control; 1. Cell count (% control) ([4]; BV2, compound 10 uM): 136.1 % control; 2. Nuclear Area (% Control) ([4]; BV2, compound 10 uM): 102.5 % Control; 3. Nuclear DNA Intensity (% control) ([4]; BV2, compound 10 uM): 102.7 % control |
| CCCCCCCCCCCCCCCCOCC(COCC(F)(F)F)OP(=O)([O-])OC.[Li+] (stereo not drawn) [UNC8441A] | – | – | – | – | – | – | – | – | 4. Phagocytosis (% control) [1, 7]: 43.1 % control; 4. Phagocytosis (% control) [2, 8]: 99.7 % control; 1. Cell count (% control) ([3]; HMC3, compound 10 uM): 76.1 % control; 2. Nuclear Area (% Control) ([3]; HMC3, compound 10 uM): 97.9 % Control; 3. Nuclear DNA Intensity (% control) ([3]; HMC3, compound 10 uM): 109.2 % control; 1. Cell count (% control) ([4]; BV2, compound 10 uM): 80.6 % control; 2. Nuclear Area (% Control) ([4]; BV2, compound 10 uM): 107.7 % Control; 3. Nuclear DNA Intensity (% control) ([4]; BV2, compound 10 uM): 98.9 % control |
| C[C@@H](Oc1cc(-c2cnn(C3CCNCC3)c2)cnc1N)c1c(Cl)ccc(F)c1Cl [UNC10220526A] | 0.09 | 0.00113 | 41.7 | 75.9 | 183.7 | 44.9 | 109.8 | 15.3 | – |
| CC(=O)NCC(=O)N1[C@@H]2CC[C@H]1c1ccc(Nc3ncc(C(F)(F)F)c(NC4CCC4)n3)cc12 [UNC10302896A] | 16.0 | 0.15 | 69.3 | 158.3 | 82.5 | 18.3 | 110.7 | 18.8 | – |
| O=C(CCl)c1ccccc1Nc1cccc(C(F)(F)F)c1 [UNC10302842A] | – | – | – | – | – | – | – | – | 4. Phagocytosis (% control) [1, 7]: 56.6 % control; 4. Phagocytosis (% control) [2, 8]: 183.6 % control; 1. Cell count (% control) ([3]; HMC3, compound 10 uM): 87.6 % control; 2. Nuclear Area (% Control) ([3]; HMC3, compound 10 uM): 81.7 % Control; 3. Nuclear DNA Intensity (% control) ([3]; HMC3, compound 10 uM): 149.6 % control; 1. Cell count (% control) ([4]; BV2, compound 10 uM): 92.3 % control; 2. Nuclear Area (% Control) ([4]; BV2, compound 10 uM): 108.5 % Control; 3. Nuclear DNA Intensity (% control) ([4]; BV2, compound 10 uM): 96.7 % control |
| Fc1ccc(C(CCCNCC2CCc3[nH]c4ccc(F)cc4c3C2)c2ccc(F)cc2)cc1 (stereo not drawn) [UNC10302893A] | 0.0 | 0.0 | 14.1 | 53.2 | 215.4 | 10.4 | 127.3 | 33.1 | – |
| CN1C(N)=N[C@](C)(c2cc(NC(=O)c3ccc(F)cn3)ccc2F)CS1(=O)=O [UNC10303092A] | 104.7 | 127.2 | 119.4 | 99.5 | 97.7 | 104.0 | 108.1 | 102.5 | – |
| CC1(C)CCC(CN2CCN(c3ccc(C(=O)NS(=O)(=O)c4ccc(NCC5CCOCC5)c([N+](=O)[O-])c4)c(Oc4cnc5[nH]ccc5c4)c3)CC2)=C(c2ccc(Cl)cc2)C1 [UNC10302836A] | – | – | – | – | – | – | – | – | 4. Phagocytosis (% control) [1, 7]: 79.7 % control; 4. Phagocytosis (% control) [2, 8]: 211.1 % control; 1. Cell count (% control) ([3]; HMC3, compound 10 uM): 133.1 % control; 2. Nuclear Area (% Control) ([3]; HMC3, compound 10 uM): 98.6 % Control; 3. Nuclear DNA Intensity (% control) ([3]; HMC3, compound 10 uM): 97.8 % control; 1. Cell count (% control) ([4]; BV2, compound 10 uM): 115.0 % control; 2. Nuclear Area (% Control) ([4]; BV2, compound 10 uM): 107.1 % Control; 3. Nuclear DNA Intensity (% control) ([4]; BV2, compound 10 uM): 100.7 % control |
| CSc1ccc2c(c1)c(CCN)c(C)n2Cc1ccc(Cl)cc1Cl.Cl [UNC10302700A] | – | – | – | – | – | – | – | – | 4. Phagocytosis (% control) [1, 7]: 0.0 % control; 4. Phagocytosis (% control) [2, 8]: 0.00395 % control; 1. Cell count (% control) ([3]; HMC3, compound 10 uM): 10.1 % control; 2. Nuclear Area (% Control) ([3]; HMC3, compound 10 uM): 49.3 % Control; 3. Nuclear DNA Intensity (% control) ([3]; HMC3, compound 10 uM): 146.5 % control; 1. Cell count (% control) ([4]; BV2, compound 10 uM): 22.6 % control; 2. Nuclear Area (% Control) ([4]; BV2, compound 10 uM): 113.6 % Control; 3. Nuclear DNA Intensity (% control) ([4]; BV2, compound 10 uM): 33.9 % control |
| COc1ccc(/C=C/C(=O)c2ccc(OC)cc2OC)cc1 [Metochalcone] | – | – | – | – | – | – | – | – | Stimulation of mouse microglial phagocytosis at 10 μM (>150% control) ([2]; BV2, 10 μM): Y (The compound was found to stimulate phagocytosis (response threshold: >150% control) when murine immortalized microglial cells were dosed at 10 μM (Y: yes)); Human microglial cytotoxicity at 10 μM (<70% control) ([3]; HMC3, 10 μM, cell count <70% control): Y (The compound was found to be cytotoxic (cell count threshold: <70% control) when human immortalized microglial cells were dosed at 10 μM (Y: yes)) |
| Cc1cc(O)cc2c1[C@]1(C)CC[C@H]3C(C)(C)CCC[C@]3(C)[C@H]1C2 [AQX-MN100] | – | – | – | – | – | – | – | – | Stimulation of mouse microglial phagocytosis at 10 μM (>150% control) ([2]; 10 μM, BV2): Y (The compound was found to stimulate phagocytosis (response threshold: >150% control) when murine immortalized microglial cells were dosed at 10 μM (Y: yes)) |
| CC(=O)O.Cc1c(-c2ccc(O)cc2)n(Cc2ccc(OCCN3CCCCCC3)cc2)c2ccc(O)cc12 [UNC10245115A] | 0.00872 | 0.00966 | – | – | – | – | – | – | – |
| O=c1ccc2c(OCCCCc3ccccc3)c3ccoc3cc2o1 [Psora-4 (5-(4-Phenylbutoxy)psoralen)] | – | – | – | – | – | – | – | – | Inhibition of human microglial phagocytosis at 10 μM (<70% control) ([1]; 10 μM, HMC3): Y (The compound was found to inhibit phagocytosis (response threshold: <70% control) when human immortalized microglial cells were dosed at 10 μM (Y: yes)); Stimulation of mouse microglial phagocytosis at 10 μM (>150% control) ([2]; 10 μM, BV2): Y (The compound was found to stimulate phagocytosis (response threshold: >150% control) when murine immortalized microglial cells were dosed at 10 μM (Y: yes)) |
| CC(C)CCOc1ccc(N)cc1 [UNC10302876A] | 89.8 | 110.6 | – | – | – | – | – | – | – |
| CC/C(=C(\c1ccccc1)c1ccc(OCCN(C)C)cc1)c1ccccc1 [Tamoxifen] | – | – | – | – | – | – | – | – | Stimulation of mouse microglial phagocytosis at 10 μM (>150% control) ([2]; BV2, 10 μM): Y (The compound was found to stimulate phagocytosis (response threshold: >150% control) when murine immortalized microglial cells were dosed at 10 μM (Y: yes)) |
| O=c1ccc2c(OCCCCOc3ccccc3)c3ccoc3cc2o1 [PAP-1 (5-(4-Phenoxybutoxy)psoralen)] | – | – | – | – | – | – | – | – | Stimulation of mouse microglial phagocytosis at 10 μM (>150% control) ([2]; 10 μM, BV2): Y (The compound was found to stimulate phagocytosis (response threshold: >150% control) when murine immortalized microglial cells were dosed at 10 μM (Y: yes)) |
| O=C(NC12C[C@H]3C[C@@H](C1)C[C@@H](C2)C3)N[C@H]1CC[C@H](Oc2ccc(C(=O)O)cc2)CC1 [t-AUCB] | – | – | – | – | – | – | – | – | Stimulation of mouse microglial phagocytosis at 10 μM (>150% control) ([2]; BV2, 10 μM): Y (The compound was found to stimulate phagocytosis (response threshold: >150% control) when murine immortalized microglial cells were dosed at 10 μM (Y: yes)) |
